Results published in patent US8466177B2 (priority 2007, dated 2013).
Like-named read-outs stand apart in the source and are kept apart here.

Legend:
[1] = tested on: A/Aichi/68 (H3N2); experiment: microbe, parasite or virus in culture; type: cell-based; details: Influenza A virus, H3N2, MDCK
[2] = tested on: influenza virus (A/Udorn/72, H3N2); type: cell-based; details: 10 μM
[3] = tested on: recombinant influenza virus hemagglutinin (A/Wyoming/3/03); type: biochemical; details: 5 μM
[4] = tested on: A/Udorn/72 (H3N2); experiment: microbe, parasite or virus in culture; type: cell-based, influenza virus
[5] = tested on: B/Lee/40 (type B); experiment: microbe, parasite or virus in culture; type: cell-based; details: Influenza B virus, MDCK
[6] = tested on: A/Udorn/72, H3N2; type: cell-based, influenza virus; details: 50 nM
[7] = tested on: A/PR/8/34 (H1N1); experiment: microbe, parasite or virus in culture; type: cell-based; details: Influenza A virus, MDCK

| Structure (SMILES) | EC50 [1] [nM] | effect on membrane fusion [2] | effect on HA stability (trypsin digestion) [3] | EC50 [4] [nM] | EC50 ([4]; Influenza A virus, H3N2, MDCK) [nM] | EC50 [5] [nM] | virus yield, cell cultures treated after inoculation [6] | EC50 [7] [nM] |
| --- | --- | --- | --- | --- | --- | --- | --- | --- |
| O=C1/C(=C/c2ccc(-c3ccc(F)cc3)o2)SC(=S)N1C1CCCCC1 [A1, (Z)-3-Cyclohexyl-5-{[5-(4-fluorophenyl)furan-2-yl]-methylene}-2-thioxothiazolidin-4-one] | 1 | inhibitory effects | destabilization effects | 0.4 | ≤ 0.4 | 1 | decreased virus yield | 0.6 |
| Cc1ccc(-c2ccc(/C=C3\SC(=S)N(C4CCCCCCC4)C3=O)o2)cc1 [A17, (Z)-3-cyclooctyl-5-{[(4-methylphenyl)furan-2-yl]methylene}-2-thioxothiazolidin-4-one] |  |  |  |  |  |  | decreased virus yield |  |
